# pIC50: −log10 of the molar value. Entries after “also recorded” stand apart in the source; their conditions may differ.
# Key:
# LXRα = biological target: T1, LXRα (Homo sapiens, UniProt Q13133); test: cell-based
# T1 sequence (Q13133 209-447 limits assumed): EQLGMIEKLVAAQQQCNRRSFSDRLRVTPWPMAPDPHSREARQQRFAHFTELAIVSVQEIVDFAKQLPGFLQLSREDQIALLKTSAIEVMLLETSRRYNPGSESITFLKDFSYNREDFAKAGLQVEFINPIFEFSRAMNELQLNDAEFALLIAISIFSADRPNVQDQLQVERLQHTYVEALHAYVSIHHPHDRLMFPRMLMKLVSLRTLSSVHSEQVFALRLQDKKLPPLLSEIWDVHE
# LXRα−/− mice = test: In vivo pilot study: T09 with GSK2033, liver LXR target genes
# LXRβ = biological target: T2, LXRβ (Homo sapiens, UniProt P55055); test: GAL4-LXRβ / UAS-luc transfection assay in mouse primary hepatocytes
# T2 sequence (P55055 222-460 limits assumed): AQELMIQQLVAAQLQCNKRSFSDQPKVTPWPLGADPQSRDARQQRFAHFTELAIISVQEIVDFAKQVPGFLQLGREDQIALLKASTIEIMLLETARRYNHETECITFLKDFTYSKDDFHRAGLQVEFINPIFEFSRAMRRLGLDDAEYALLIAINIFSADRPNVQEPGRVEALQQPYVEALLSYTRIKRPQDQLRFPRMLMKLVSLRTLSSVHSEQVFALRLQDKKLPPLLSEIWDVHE
# Text: RLU=relative luciferase units.
# [1] = T09 5 mg/kg i.p. + GSK2033 20 or 40 mg/kg i.p.
structure (smiles),measurement,setting,value
"Cc1cc(C)c(S(=O)(=O)N(Cc2ccc(-c3cccc(S(C)(=O)=O)c3)cc2)Cc2ccc(C(F)(F)F)o2)c(C)c1 [GSK2033, 2,4,6-trimethyl-N-((3′-(methylsulfonyl)-[1,1′-biphenyl]-4-yl)methyl)-N-((5-(trifluoromethyl)furan-2-yl)methyl)benzenesulfonamide]",pIC50,LXRα,6.18
same,liver ABCG5 activation by T09,LXRα−/− mice; [1],dose dependent inhibition; also recorded: dose dependent repression
same,liver ABCG8 activation by T09,LXRα−/− mice; [1],dose dependent inhibition; also recorded: dose dependent repression
same,toxicity,LXRα−/− mice; higher dose of GSK2033 (40 mg/kg),no toxicity
same,pIC50,LXRβ,6.53
same,"right-shift of LXRβ IC50, primary hepatocytes vs HEK293",LXRβ,~10 fold
same,selectivity for LXRβ vs. LXRα,LXRβ; in hepatocytes,2.5 fold
